According to PMC7790953 (ACS chemical neuroscience, 2020):
“Also recorded” adds a separate entry of the source.

Key:
h9B1 = type: binding; conditions: for Kd: read-out: Kd as printed in text (h9B1); for Ki: read-out: Ki (h9B1), pH 7.4
9B1 [1] = type: binding, mouse; conditions: for Kd: read-out: Kd as printed in text (9B1); for Ki: read-out: Ki (9B1), pH 7.4
9B1 [2] = conditions: estimated in original report; cited from earlier work
Ab15 = conditions: ref SI Table S2; cited from earlier work

Row | Molecule | Kd (h9B1) | Ki (h9B1) | Kd (9B1 [1]) | Ki (9B1 [1]) | Binding constant of 9B1 with morphine (9B1 [2]) | Binding with h9B1 in initial screening (h9B1) | Binding with 9B1 in initial screening (9B1 [1]) | IC50 (Ab15)
1 | CC(=O)O[C@H]1C=C[C@H]2[C@H]3Cc4ccc(O)c5c4[C@@]2(CCN3C)[C@H]1O5 [6-MAM, 6-monoacetylmorphine] | 11.9 nM | 11.9 nM | 4.8 nM | 4.8 nM | – | – | – | –
2 | CC(=O)Oc1ccc2c3c1O[C@H]1[C@@H](OC(C)=O)C=C[C@H]4[C@@H](C2)N(C)CC[C@@]341 [heroin] | 11.8 nM | 11.8 nM | 1.3 nM | 1.3 nM | – | – | – | –
3 | COc1ccc2c3c1O[C@H]1C(=O)CC[C@H]4[C@@H](C2)N(C)CC[C@]314 [hydrocodone] | 39.3 nM | 39.3 nM | 8.2 nM | 8.2 nM | – | – | – | –
4 | CN1CC[C@]23c4c5ccc(O)c4O[C@H]2[C@@H](O)C=C[C@H]3[C@H]1C5 [morphine] | – | – | – | – | ~ 10^9 M^−1 | – | – | –
5 | C=CCN1CC[C@]23c4c5ccc(O)c4O[C@H]2C(=O)CC[C@@]3(O)[C@H]1C5 [naloxone] | – | – | – | – | – | did not show significant binding affinities; also recorded: without significant binding | did not show significant binding affinities; also recorded: without significant binding | –
6 | O=C1CC[C@@]2(O)[C@H]3Cc4ccc(O)c5c4[C@@]2(CCN3CC2CC2)[C@H]1O5 [naltrexone] | – | > 10000 nM | – | > 10000 nM | – | did not show significant binding affinities; also recorded: without significant binding | did not show significant binding affinities; also recorded: without significant binding | 310 nM
7 | COc1ccc2c3c1O[C@H]1C(=O)CC[C@@]4(O)[C@@H](C2)N(C)CC[C@]314 [oxycodone] | – | 6910 nM | – | 2670 nM | – | – | – | –
8 | buprenorphine | – | – | – | – | – | did not show significant binding affinities; also recorded: without significant binding | did not show significant binding affinities; also recorded: without significant binding | –
